Data reported in paper PMC10734620, “A blinded in vitro analysis of the intrinsic immunogenicity of hepatotoxic drugs: implications for preclinical risk assessment” (Toxicological Sciences, 2023).
Read-outs that look alike come from different tables or passages of the source.

Key:
[1] = tested on: PBMC; test: Inhibition of mitogen-induced (PHA-P) PBMC proliferation; format: cell-based, human; conditions: PBMC from 3 healthy donors, compound 48 h, then PHA-P 10 µg/ml 24 h, [3H]-thymidine, read-out: IC50, inhibition of mitogen-driven PBMC proliferation
Method: Test compounds were provided by GSK to Liverpool as blinded dry powders with a given volume of dimethyl sulfoxide to prepare stock concentrations of 50 mM. Stock concentrations were aliquoted and stored at −80°C until required for experiments. A fresh aliquot was utilized for every experiment. PBMC from 3 healthy donors were used to determine the maximum tolerated concentration of each test compound. PBMC (0.15 × 10^6) were cultured with graded compound concentrations in U-bottomed 96-well plates for 48 h at 37°C, 5% CO2. Phytohemagglutinin (PHA-P; 10 µg/ml) was added to cells for a further 24 h followed by assessment of proliferation through the addition of [^3H]-thymidine (0.5 µCi/well) for the last 16 h. […] The IC50 value was then calculated using 4-parameter logistic curve-fitting model (GraphPad prism 7.0).
Figure 2. Toxicity profiles of training and test compounds. […] PHA-P (10 µg/ml) was added to cells for a further 24 h followed by assessment of proliferation through the addition of [^3H]-thymidine (0.5 µCi/well) for the last 16 h. […] 4-parameter logistic functions were fit to the data and IC50 values were then reported (GraphPad prism 7.0). […] LPB (Liverpool Pharmacology Biobank) represents the unique identifier for PBMC isolated from each consented healthy blood donor for drug safety research. Percentage proliferation for each compound concentration = Proliferation following drug exposure divided by proliferation after cell culture media exposure multiplied by 100.

[2] = tested on: T-cell clones; test: Generation and drug-specificity testing of T-cell clones; format: cell-based, human; conditions: priming assay and/or T-cell clones
Method: To establish T-cell lines, PBMC from 3 healthy HLA-typed (Table 2) donors were cultured with individual test compounds (at concentrations not associated with inhibition of mitogen-driven PBMC proliferation; see Figure 2 for individual concentrations) for 14 days. Medium was supplemented with IL-2 (50 U/ml; Peprotech, New Jersey) to maintain drug-specific T-cell expansion. T-cell clones were generated from the T-cell lines by serial dilution and repetitive mitogen stimulation ([Schnyder et al., 2000]). T-cells (0.3–3 cells/well) were cultured with irradiated allogenic PBMC (5 × 10^4/well) and PHA-P (1 µg/ml) in IL-2 containing medium. The medium was supplemented with fresh IL-2 on days 6, 9 and every 2 days thereafter. Growing cultures were expanded further with a second round of mitogen stimulation and tested for drug-specific T-cell proliferation on day 28. Cloned T-cells (5 × 10^4/well) were cultured with irradiated autologous EBV-transformed B-cells (1 × 10^4/well) and drug in duplicate wells for 48 h. Wells containing medium served as a negative control. Proliferation was measured by the addition of [^3H]-thymidine followed by scintillation counting. T-cell clones with SI ≥ 2 were considered drug-responsive and expanded using irradiated allogeneic PBMC for dose-response studies and assessment of CD4/8 phenotyping.
Proliferation was measured by the addition of [^3H]-thymidine as described above.
T-cell clones were washed with FACS buffer and CD phenotype determined using flow cytometry. Cells (10 000) were acquired using a FACSCanto II (BD Biosciences) and data analyzed by FACSDiva software.
Figure 6. Generation of training compound (nitroso sulfamethoxazole, vancomycin, and Bandrowski’s base)-specific T-cell clones. PBMC from 3 healthy donors were cultured with training compounds and supplemented with IL-2 (50 U/ml) for 14 days. T-cell clones were generated from the T-cell lines by serial dilution and repetitive mitogen stimulation. T-cells (0.3–3 cells/well) were stimulated with irradiated allogenic PBMC (5 × 10^4/well) and phytohemagglutinin (1 µg/ml). Well growing cultures were subjected to a second round of expansion then tested for drug-specific T-cell proliferation. Proliferation was measured by the addition of ^3H-thymidine followed by scintillation counting. A–C, Initial specificity test for nitroso sulfamethoxazole, vancomycin, and Bandrowski’s base clones. T-cell clones showing stimulation index, SI ≥ 2 were considered drug-responsive and expanded and used in dose-response studies. SI = Drug-induced T-cell proliferation divided by T-cell proliferation in cell culture media. […] T-cell activation was determined using [^3H]-thymidine incorporation.
Figure 7. […] PBMC from 3 healthy donors were cultured with test compounds and supplemented with IL-2 (50 U/ml) for 14 days. T-cell clones were generated from the T-cell lines by serial dilution and repetitive mitogen stimulation. T-cells (0.3–3 cells/well) were stimulated with irradiated allogenic PBMC (5 × 10^4/well) and phytohemagglutinin (1 µg/ml). Well growing cultures were subjected to a second round of expansion then tested for drug-specific T-cell proliferation. Proliferation was measured by the addition of ^3H-thymidine followed by scintillation counting. […] T-cell activation was determined using [^3H]-thymidine incorporation.

[3] = parameters: method as in Sakatis et al., 2012; Schofield et al., 2021; conditions: Positive = above the threshold of concern; assays not listed negative; ref Sakatis et al., 2012; Schofield et al., 2021; cited from earlier work
[4] = parameters: method as in FDA DILIrank datasets; conditions: ref FDA DILIrank datasets; cited from earlier work
[5] = parameters: method as in earlier work; conditions: ref National Institute of Diabetes and Digestive and Kidney Diseases (2012); cited from earlier work
[6] = tested on: naïve T-cells; test: Priming of naïve human T-cells (dendritic cell-T-cell coculture); format: cell-based; conditions: for Proliferation of primed T-cells, drug- vs medium-restimulated wells: 14 days priming, restimulation 48 h at single concentration, 48 wells, [3H]-thymidine; for Proliferation in medium restimulated wells after priming: primed 2 weeks, medium restimulation
Method: CD14+ monocytes were positively selected using CD14 antibody-conjugated microbeads. This was followed by the depletion of CD25+ cells from the CD14- population and the negative selection of CD45RA+ naïve T-cells. […] Dendritic cells were generated by culturing monocytes with a cocktail of GM-CSF (800 U/ml) and IL-4 (800 U/ml) in culture media for 6 days. Both cytokines were purchased from Peprotech (New Jersey). A maturation cocktail of TNF-α (25 ng/ml) and LPS (1 µg/ml) was added for 16 h before establishing the T-cell priming culture. Dendritic cells (8 × 10^3 per well) were cultured with naïve T-cells (1 × 10^5 per well) and the test compounds in a 96-well U-bottom tissue culture plate for 14 days at 37°C, 5% CO2. Cells were then washed extensively to remove unbound drug and cultures were restimulated with test compound or medium control (48 wells) for 48 h. Subsequent experiments were performed with training compounds to investigate the dose-dependent stimulation of naïve T-cells. In these experiments, T-cells were cultured with 3 concentrations of the test compound and medium (negative control) during the restimulation step. T-cell proliferative responses were determined by addition of [^3H]-thymidine (0.5 µCi/well) for the final 16 h of the culture period. Plates were harvested and counted as described above. […] Student’s t test was performed to determine statistical significance of T-cell proliferation when comparing medium- and drug-treated cultures (*p ≤ .05; **p ≤ .005; ***p < .001).
Figure 3. Naïve T-cell priming with training compounds. CD14+ monocytes were utilized to generate dendritic cells with a cocktail of GM-CSF (800 U/ml) and IL-4 (800 U/ml) in culture media for 6 days. […] A, Nitroso sulfamethoxazole. B, Vancomycin. C, Bandrowski’s base. D, Carbamazepine. E, Piperacillin. The degree of naïve T-cell priming was determined by comparing the counts per minutes (cpm) of drug and media-treated cultures using a beta counter. Student’s t test was performed to determine statistical significance (*p ≤ .05; **p ≤ .005; ***p < .001). Each data point represents T-cells proliferation in individual well of a 96 U-bottomed plate.
Figure 4. Dose-dependent stimulation of primed T-cells with training compound. […] Primed cells were washed extensively and then restimulated with 3 drug concentrations (low, medium, and high) for 48 h followed by determination of T-cell activation by [^3H]-thymidine incorporation. Each data point represents T-cells proliferation in individual well of a 96 U-bottomed plate.
Figure 5. Naïve T-cell priming with test compounds. […] B, Dacarbazine. […] F, Iproniazid. G, Mepivacaine. H, Nevirapine. […] J, Phenoxybenzamine. Primed cells were washed extensively and then restimulated medium or drug for 48 h followed by determination of T-cell activation by [^3H]-thymidine incorporation. Each data point represents T-cells proliferation in individual well of a 96 U-bottomed plate.

CN(C)/N=N/c1[nH]cnc1C(N)=O [Dacarbazine]
IC50 ([1]; Homo sapiens, PBMC): 15 µM | IC50 [1]: ≤ 20 µM | Overall immunogenicity call in T-cell assays [2]: did not flag these compounds as immunogenic | Routine Assays that are Positive (GSK) [3]: Reactive metabolite; 3D hepatocyte spheroid | FDA Clinical Hepatotoxicity Concern [4]: Most | LiverTox annotation: likelihood as cause of clinically apparent liver injury [5]: Highly likely cause of clinically apparent liver injury. May be immunologically mediated as usually occurs with second or third cycle and accompanied by eosinophilia

COc1cc([C@@H]2c3cc4c(cc3[C@@H](O[C@@H]3O[C@@H]5CO[C@@H](C)O[C@H]5[C@H](O)[C@H]3O)[C@H]3COC(=O)[C@H]23)OCO4)cc(OC)c1O [Etoposide]
IC50 ([1]; Homo sapiens, PBMC): 20 µM | IC50 [1]: ≤ 20 µM | Overall immunogenicity call in T-cell assays [2]: no false positives | FDA Clinical Hepatotoxicity Concern [4]: Less | LiverTox annotation: likelihood as cause of clinically apparent liver injury [5]: Probable cause of clinically apparent liver injury. Absence of immunoallergic features (rash, fever, eosinophilia) and of autoantibodies noted. Uncommon to have features of hypersensitivity

CC(C)NNC(=O)c1ccncc1 [Iproniazid]
IC50 ([1]; listed as iproniazid): ≥ 50 µM | IC50 [1]: 290 µM | Proliferation of primed T-cells, drug- vs medium-restimulated wells [6]: increases in proliferation with drug restimulation was not observed | Proliferation in medium restimulated wells after priming [6]: high level of proliferation | Overall immunogenicity call in T-cell assays [2]: did not flag these compounds as immunogenic | Routine Assays that are Positive (GSK) [3]: None | FDA Clinical Hepatotoxicity Concern [4]: Most

Cc1cccc(C)c1NC(=O)C1CCCCN1C (stereo not drawn) [Mepivacaine]
IC50 ([1]; listed as mepivacaine): ≥ 50 µM | IC50 [1]: 210 µM | Proliferation of primed T-cells, drug- vs medium-restimulated wells [6]: increases in proliferation with drug restimulation was not observed | Proliferation in medium restimulated wells after priming [6]: high level of proliferation | Overall immunogenicity call in T-cell assays [2]: no false positives | Routine Assays that are Positive (GSK) [3]: None | FDA Clinical Hepatotoxicity Concern [4]: No | LiverTox annotation: likelihood as cause of clinically apparent liver injury [5]: Unlikely to be a cause of clinically apparent liver injury

Cc1ccnc2c1NC(=O)c1cccnc1N2C1CC1 [Nevirapine]
IC50 ([1]; listed as nevirapine): ≥ 50 µM | IC50 [1]: 110 µM | Proliferation of primed T-cells, drug- vs medium-restimulated wells [6]: increases in proliferation with drug restimulation was not observed | Proliferation in medium restimulated wells after priming [6]: high level of proliferation | Overall immunogenicity call in T-cell assays [2]: did not flag these compounds as immunogenic | Routine Assays that are Positive (GSK) [3]: None | FDA Clinical Hepatotoxicity Concern [4]: Most | LiverTox annotation: likelihood as cause of clinically apparent liver injury [5]: Well-known cause of clinically apparent liver injury. Immunoallergic hepatitis associated with specific HLA types

O=C1CN(/N=C/c2ccc([N+](=O)[O-])o2)C(=O)N1 [Nitrofurantoin]
IC50 ([1]; Homo sapiens, PBMC): 15 µM | IC50 [1]: ≤ 20 µM | Overall immunogenicity call in T-cell assays [2]: did not flag these compounds as immunogenic | FDA Clinical Hepatotoxicity Concern [4]: Most | LiverTox annotation: likelihood as cause of clinically apparent liver injury [5]: Well-known cause of clinically apparent liver injury. Oxidative free radical formation. Some cases show autoimmune etiology with linkage to HLA-DR6 and DR2
